In article PMC9915920, “The Antidepressant Paroxetine Reduces the Cardiac Sodium Current” (International Journal of Molecular Sciences, 2023):

Biological target: T1, cardiac voltage-gated sodium channel (NaV1.5) (Homo sapiens, UniProt Q14524)
T1 construct: gene SCN5A; human NaV1.5 channels stably expressed in HEK-293 cells, without β-subunits
Assay: whole-cell patch clamp, peak NaV1.[…] current at −[…] mV, HEK-293 cells
Assay type: cell-based

T1 sequence (Q14524 whole entry): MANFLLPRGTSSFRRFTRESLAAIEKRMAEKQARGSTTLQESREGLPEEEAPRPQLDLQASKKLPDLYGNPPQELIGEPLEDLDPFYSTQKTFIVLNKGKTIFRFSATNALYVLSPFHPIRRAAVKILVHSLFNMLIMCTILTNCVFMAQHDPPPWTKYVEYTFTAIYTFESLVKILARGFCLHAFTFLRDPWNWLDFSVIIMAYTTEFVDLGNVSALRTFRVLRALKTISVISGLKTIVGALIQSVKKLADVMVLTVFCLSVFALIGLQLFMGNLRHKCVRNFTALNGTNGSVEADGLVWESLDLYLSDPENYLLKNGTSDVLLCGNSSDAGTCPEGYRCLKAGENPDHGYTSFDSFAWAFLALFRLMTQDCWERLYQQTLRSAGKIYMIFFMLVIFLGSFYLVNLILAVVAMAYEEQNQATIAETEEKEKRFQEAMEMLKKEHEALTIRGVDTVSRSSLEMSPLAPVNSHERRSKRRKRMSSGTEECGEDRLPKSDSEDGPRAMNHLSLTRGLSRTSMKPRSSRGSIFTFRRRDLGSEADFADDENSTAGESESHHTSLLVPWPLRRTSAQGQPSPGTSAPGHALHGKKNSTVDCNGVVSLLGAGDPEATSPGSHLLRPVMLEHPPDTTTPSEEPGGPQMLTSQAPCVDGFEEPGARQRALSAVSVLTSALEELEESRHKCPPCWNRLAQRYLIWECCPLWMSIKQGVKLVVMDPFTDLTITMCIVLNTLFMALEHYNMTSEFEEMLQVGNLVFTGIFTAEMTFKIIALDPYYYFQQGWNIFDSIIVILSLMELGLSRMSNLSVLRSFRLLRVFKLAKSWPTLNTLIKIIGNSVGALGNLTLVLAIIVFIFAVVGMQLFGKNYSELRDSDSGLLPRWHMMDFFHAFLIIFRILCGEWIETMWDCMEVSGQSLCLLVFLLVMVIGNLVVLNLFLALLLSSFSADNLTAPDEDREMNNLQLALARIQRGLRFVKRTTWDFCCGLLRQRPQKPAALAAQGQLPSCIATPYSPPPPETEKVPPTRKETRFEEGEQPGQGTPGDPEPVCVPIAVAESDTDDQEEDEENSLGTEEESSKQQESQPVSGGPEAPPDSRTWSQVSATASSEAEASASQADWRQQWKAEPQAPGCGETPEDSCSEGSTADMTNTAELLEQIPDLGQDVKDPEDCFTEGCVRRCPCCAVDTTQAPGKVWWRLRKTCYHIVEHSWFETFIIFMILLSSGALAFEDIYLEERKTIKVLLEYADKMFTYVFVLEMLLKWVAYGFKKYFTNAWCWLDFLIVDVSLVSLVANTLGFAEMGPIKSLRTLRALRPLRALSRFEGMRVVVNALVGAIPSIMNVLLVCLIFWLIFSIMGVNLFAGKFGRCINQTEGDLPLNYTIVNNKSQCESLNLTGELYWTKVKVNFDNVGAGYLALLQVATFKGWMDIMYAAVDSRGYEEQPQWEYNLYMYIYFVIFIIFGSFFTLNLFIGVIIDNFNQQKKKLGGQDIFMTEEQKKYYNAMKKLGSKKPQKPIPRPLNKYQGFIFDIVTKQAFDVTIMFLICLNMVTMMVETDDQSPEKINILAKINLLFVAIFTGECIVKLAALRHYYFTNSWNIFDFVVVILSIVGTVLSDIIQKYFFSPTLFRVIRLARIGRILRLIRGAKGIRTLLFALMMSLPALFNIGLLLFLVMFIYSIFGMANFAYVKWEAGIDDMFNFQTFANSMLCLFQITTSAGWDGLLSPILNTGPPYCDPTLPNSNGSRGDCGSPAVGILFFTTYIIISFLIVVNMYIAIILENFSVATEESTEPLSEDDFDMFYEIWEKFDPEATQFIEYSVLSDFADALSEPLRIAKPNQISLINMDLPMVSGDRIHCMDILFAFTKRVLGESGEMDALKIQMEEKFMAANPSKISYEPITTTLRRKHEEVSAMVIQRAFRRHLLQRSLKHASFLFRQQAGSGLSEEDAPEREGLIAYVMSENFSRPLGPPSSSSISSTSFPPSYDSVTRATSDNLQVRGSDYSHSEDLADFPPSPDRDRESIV

Structure (SMILES): Fc1ccc([C@@H]2CCNC[C@H]2COc2ccc3c(c2)OCO3)cc1 [paroxetine]
- IC50: 6.8 ± 1.1 µM
